The text below walks through data of ChEMBL document CHEMBL1201862, “PubChem BioAssay data set” (2004).

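Assay format: 96-well plates, 48-hour exposure. GI50 marks 50% less growth.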 Calls of active or inactive are those of the source. Cut-off read from the data, not from the text of the source: active = GI50 up to about 1.1 µM and inactive = higher.

Some test systems named below: TK-10; Hs-578T; KM12; K562; UACC-257; PC-3; SNB-75; SW-620; OVCAR-5; RPMI-8226; HL-60; NCI-H226; COLO 205; 786-0; HCT-15; SNB-19; NCI/ADR-RES; OVCAR-4; UO-31; CAKI-1.
What all share (test): NCI tumour cell line growth inhibition, 48 h

Take `O=C1NC(=O)C2=C1CCC2O` (stereo not given): the GI50 with TK-10, with Hs-578T, in the assay with KM12, in the assay on K562, in the assay on UACC-257 and in the assay on PC-3 was > 100 µM (inactive) each time. For the same molecule, the GI50 in the assay with SNB-75, in the assay with SW-620, in the assay with OVCAR-5, with RPMI-8226, in the assay with HL-60 and in the assay on NCI-H226 was > 100 µM (inactive) throughout. Moreover, the GI50 with COLO 205 is > 100 µM (inactive); in the assay on 786-0, > 100 µM (inactive); in the assay with HCT-15 it was > 100 µM; in the assay on SNB-19 it was > 100 µM (inactive); in the assay on NCI/ADR-RES, > 100 µM (inactive); in the assay with OVCAR-4, > 100 µM (inactive). Also, the GI50 with UO-31 and with CAKI-1 was > 100 µM (inactive) throughout.
On to `Oc1c(CN2CCOCC2)ccc(CN2CCOCC2)c1O`, for which the GI50 is 47.2 µM (inactive) in the assay with TK-10; > 100 µM (inactive) in the assay on Hs-578T; 75.7 µM (inactive) with KM12; 34.3 µM (inactive) in the assay on K562; 27.2 µM (inactive) in the assay with UACC-257; 48 µM (inactive) with PC-3. The GI50 in the assay on SNB-75 is 15.1 µM (inactive); in the assay on SW-620, 83.6 µM (inactive); with OVCAR-5, 57 µM (inactive); in the assay on RPMI-8226 it was 50.1 µM (inactive); in the assay on HL-60, 3.8 µM (inactive); with NCI-H226 it was 28.4 µM (inactive). The GI50 with COLO 205 is 45.9 µM (inactive); in the assay on 786-0, 37.5 µM (inactive); with HCT-15, 34 µM; in the assay with SNB-19, 43.3 µM (inactive); with NCI/ADR-RES, 30.1 µM (inactive); in the assay on OVCAR-4, > 100 µM (inactive). The GI50 with UO-31 was 18 µM (inactive); in the assay on CAKI-1 it was 52 µM (inactive).
With `Cc1ccc(/N=N/c2ccc(O)c(CN(C)C)c2)cc1C`, the GI50 was 16.1 µM (inactive) with TK-10; 16.4 µM (inactive) with Hs-578T; 16.9 µM (inactive) in the assay with KM12; 13.9 µM (inactive) with K562; 23.1 µM (inactive) in the assay with UACC-257; 40.9 µM (inactive) with PC-3. Also, the GI50 is 21.9 µM (inactive) in the assay on SNB-75; 33.6 µM (inactive) in the assay with SW-620; 31.8 µM (inactive) in the assay on OVCAR-5; 26.5 µM (inactive) in the assay on RPMI-8226; 10.1 µM (inactive) in the assay with HL-60; 26.9 µM (inactive) in the assay with NCI-H226. Also, the GI50 was 11.9 µM (inactive) in the assay on COLO 205; 34.4 µM (inactive) with 786-0; 17.3 µM in the assay on HCT-15; 34.2 µM (inactive) in the assay with SNB-19; 16 µM (inactive) in the assay on NCI/ADR-RES; 43.4 µM (inactive) in the assay on OVCAR-4. Further, the results for the GI50 in the assay on UO-31 and in the assay with CAKI-1 were 8.3 µM (inactive) and 25.6 µM (inactive), respectively.
Turning to `COc1ccc(Cc2nc3cc(Cl)ccc3o2)cc1`, the GI50 in the assay with TK-10 is 35.7 µM (inactive); in the assay with Hs-578T, 49.2 µM (inactive); in the assay on KM12, 27.7 µM (inactive); in the assay with K562, 34.4 µM (inactive); in the assay with UACC-257, 24 µM (inactive); in the assay with PC-3 it was 32.3 µM (inactive). Also, the GI50 is 13.1 µM (inactive) in the assay on SNB-75; 35.5 µM (inactive) with SW-620; 50.6 µM (inactive) in the assay with OVCAR-5; 21.3 µM (inactive) in the assay with RPMI-8226; 28.4 µM (inactive) in the assay on HL-60; 21.5 µM (inactive) with NCI-H226. For the same molecule, the GI50 was 28.4 µM (inactive) in the assay on COLO 205; 33.3 µM (inactive) in the assay with 786-0; 26.9 µM in the assay on HCT-15; 42.2 µM (inactive) with SNB-19; 24.2 µM (inactive) in the assay on NCI/ADR-RES; 18.8 µM (inactive) with OVCAR-4. For the same molecule, the GI50 in the assay on UO-31 was 33.3 µM (inactive); in the assay on CAKI-1 it was 31 µM (inactive).
As for `NC(=S)Nc1nc(=S)[nH]c2c1SC1=N/C(=C\c3ccco3)C(=O)N12`, the GI50 with TK-10 was > 100 µM (inactive); in the assay on Hs-578T it was > 100 µM (inactive); in the assay on KM12 it was 98.6 µM (inactive); with K562, 28.4 µM (inactive); in the assay on UACC-257 it was > 100 µM (inactive); with PC-3, > 100 µM (inactive). In addition, the GI50 in the assay on SNB-75 is > 57.1 µM (inactive); in the assay on SW-620 it was > 100 µM (inactive); with OVCAR-5 it was > 100 µM (inactive); with RPMI-8226 it was 29.3 µM (inactive); in the assay with HL-60, 19.1 µM (inactive); with NCI-H226 it was > 47.8 µM (inactive). For the same molecule, the GI50 is > 100 µM (inactive) in the assay on COLO 205; > 100 µM (inactive) in the assay with 786-0; 48.8 µM with HCT-15; > 100 µM (inactive) in the assay on SNB-19; > 100 µM (inactive) in the assay with NCI/ADR-RES; 61.8 µM (inactive) in the assay on OVCAR-4. For the same molecule, the GI50 with UO-31 is > 100 µM (inactive); in the assay with CAKI-1, > 82.4 µM (inactive).
For `N/C(=N\Nc1cccc(Cl)c1)c1cccnc1`, the GI50 in the assay with TK-10 was 28.6 µM (inactive); in the assay with Hs-578T it was > 100 µM (inactive); with KM12, 30 µM (inactive); with K562, 4.04 µM (inactive); in the assay with UACC-257, 32.3 µM (inactive); in the assay on PC-3, 31 µM (inactive). In addition, the GI50 is 29.7 µM (inactive) with SNB-75; 54.2 µM (inactive) in the assay with SW-620; 41.3 µM (inactive) in the assay on OVCAR-5; 14.7 µM (inactive) with RPMI-8226; 4.28 µM (inactive) with HL-60; 33.9 µM (inactive) in the assay with NCI-H226. Moreover, the GI50 in the assay on COLO 205 was 29 µM (inactive); in the assay on 786-0 it was 38.2 µM (inactive); in the assay on HCT-15, 39.6 µM; with SNB-19, 58.9 µM (inactive); in the assay with NCI/ADR-RES, 38.7 µM (inactive); with OVCAR-4, 13.7 µM (inactive). The GI50 with UO-31 was 7.87 µM (inactive); in the assay with CAKI-1, 3.49 µM (inactive).
On to `CO[C@@H]1C[C@H](OC(N)=O)[C@@H]2C=C[C@@H]3/C=C(C)/C=C/[C@@H](C)[C@H](/C(C)=C/[C@@H](C)NC(C)=O)OC(=O)/C=C/C=C(C)\C=C\[C@]3(C)[C@@H]2C1` [SUPERSTOLIDE B], for which the GI50 was 0.0718 µM (active) in the assay on TK-10; < 0.005 µM (active) with Hs-578T; < 0.005 µM (active) in the assay on KM12; < 0.005 µM (active) with K562; 0.0189 µM (active) with UACC-257; < 0.005 µM (active) in the assay with PC-3. For the same molecule, the GI50 in the assay on SNB-75 was < 0.005 µM (active); in the assay with SW-620, < 0.005 µM (active); in the assay on OVCAR-5, 0.466 µM (active); with RPMI-8226 it was 0.0158 µM (active); with HL-60, < 0.005 µM (active); in the assay on NCI-H226, < 0.005 µM (active). The GI50 in the assay on COLO 205 was < 0.005 µM (active); in the assay with 786-0, < 0.005 µM (active); with HCT-15, 0.00518 µM; in the assay on SNB-19 it was 0.0306 µM (active); in the assay with NCI/ADR-RES it was < 0.005 µM (active); in the assay on OVCAR-4, < 0.005 µM (active). Moreover, the GI50 with UO-31 and in the assay with CAKI-1 was < 0.005 µM (active) in each case.
As for `CC(=O)N(CN1C(=O)CCC1C(=O)O)c1ccccc1Cl` (stereo not given), the GI50 with TK-10, with Hs-578T, in the assay with KM12, in the assay with K562, with UACC-257 and in the assay with PC-3 was > 100 µM (inactive) in each case. Besides, the GI50 in the assay on SNB-75, with SW-620, in the assay on OVCAR-5, with RPMI-8226, in the assay with HL-60 and with NCI-H226 was > 100 µM (inactive) each time. In addition, the GI50 in the assay on COLO 205 is > 100 µM (inactive); with 786-0, > 100 µM (inactive); with HCT-15 it was > 100 µM; in the assay with SNB-19, > 100 µM (inactive); in the assay on NCI/ADR-RES, > 100 µM (inactive); in the assay on OVCAR-4 it was > 100 µM (inactive). Also, the GI50 in the assay on UO-31 and in the assay on CAKI-1 was > 100 µM (inactive) in each case.
For `C=C1CC2(C[C@@H](c3ccccc3)O[C@@H](c3ccccc3)C2)OC1=O` (stereo not given in full), the GI50 with TK-10 was 1.8 µM (inactive); in the assay with Hs-578T, 2.31 µM (inactive); in the assay with KM12, 4.39 µM (inactive); in the assay on K562, 2.22 µM (inactive); in the assay on UACC-257 it was 3.35 µM (inactive); in the assay on PC-3, 3.5 µM (inactive). Also, the GI50 was 4.65 µM (inactive) in the assay with SNB-75; 1.67 µM (inactive) in the assay with SW-620; 13.3 µM (inactive) in the assay with OVCAR-5; 0.341 µM (active) in the assay with RPMI-8226; 0.44 µM (active) in the assay with HL-60; 16 µM (inactive) with NCI-H226. The GI50 with COLO 205 is 2.03 µM (inactive); in the assay with 786-0, 2.59 µM (inactive); in the assay on HCT-15 it was 2.54 µM; in the assay with SNB-19, 15.2 µM (inactive); in the assay on NCI/ADR-RES, 3.06 µM (inactive); in the assay with OVCAR-4, 5.7 µM (inactive). The GI50 in the assay with UO-31 is 6.24 µM (inactive); in the assay on CAKI-1, 1.97 µM (inactive).
On to `CCCCCCCC(=O)OC[n+]1cccc(-c2c(COC(=O)NC(C)C)c(COC(=O)NC(C)C)c3n2CCC3)c1`, for which the GI50 is > 100 µM (inactive) in the assay on TK-10; > 100 µM (inactive) in the assay with Hs-578T; > 100 µM (inactive) in the assay with KM12; 83.6 µM (inactive) in the assay on K562; > 100 µM (inactive) in the assay on UACC-257; > 88.3 µM (inactive) with PC-3. The GI50 in the assay with SNB-75 was > 78 µM (inactive); with SW-620 it was > 50.5 µM (inactive); with OVCAR-5, > 100 µM (inactive); with RPMI-8226 it was > 86.1 µM (inactive); with HL-60, 24.3 µM (inactive); in the assay with NCI-H226 it was 97.5 µM (inactive). In addition, the GI50 in the assay with COLO 205 is > 87.7 µM (inactive); in the assay with 786-0, 40 µM (inactive); with HCT-15 it was > 100 µM; in the assay with SNB-19, > 100 µM (inactive); with NCI/ADR-RES it was > 100 µM (inactive); in the assay on OVCAR-4, > 100 µM (inactive). Further, the GI50 with UO-31 is 62.8 µM (inactive); in the assay with CAKI-1, 18.9 µM (inactive).
